System: rabbit skeletal myofibrils (fast skeletal myofibrils)
Assay: Activation of fast skeletal myofibrils (PUMA assay, PK/LDH-coupled ATPase at pCa25)
Assay type: biochemical
Conditions: AC1.4 determined according to the procedure of Example 39; reported as class symbols
Procedure, shortened: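 Detergent-washed rabbit psoas myofibrils (~90% fast fibres, calcium-regulated) assayed at calcium giving 25% of maximal ATPase rate (pCa25). ADP turnover coupled via pyruvate kinase/lactate dehydrogenase to NADH oxidation, read at 340 nm. Buffer 12 mM PIPES, 2 mM MgCl2, 1 mM DTT, pH 6.8; AC1.4 values derived.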

| Mean AC1.4 | SMILES |
| --- | --- |
| D (D=>20 uM) | COC(=O)N1CC(CNc2ccc(-c3ccc4[nH]ncc4c3)nn2)(c2ncccc2F)C1 [methyl 3-(3-fluoro(2-pyridyl))-3-{[(6-(1H-indazol-5-yl)pyridazin-3-yl)amino]methyl}azetidine-carboxylate] |
| D (D=>20 uM) | COC(=O)N1CC(CNc2ccc(-c3cccc(C(N)=O)c3)nn2)(c2ncccc2F)C1 [methyl 3-({[6-(3-carbamoylphenyl)pyridazin-3-yl]amino}methyl)-3-(3-fluoro(2-pyridyl))azetidinecarboxylate] |

The remaining lines, values behind:

| SMILES | Mean AC1.4 |
| --- | --- |
| CC(C)(CNc1ccc(CNS(C)(=O)=O)nn1)c1ccc(F)cc1 [[(6-{[2-(4-fluorophenyl)-2-methylpropyl]amino}pyridazin-3-yl)methyl](methylsulfonyl)amine] | B (B=1-10 uM) |
| CCOC(=O)C1(NC(=O)c2ccc(NCC(C)(C)c3ccc(F)cc3)nn2)CC1 [ethyl 1-[(6-{[2-(4-fluorophenyl)-2-methylpropyl]amino}pyridazin-3-yl)carbonylamino]cyclopropane-carboxylate] | D (D=>20 uM) |
| CCOC(=O)c1cc(-c2ccc(NCC(C)(C)c3ccc(F)cc3)nn2)ccc1F [ethyl 2-fluoro-5-(6-{[2-(4-fluorophenyl)-2-methylpropyl]amino}pyridazin-3-yl)benzoate] | B (B=1-10 uM) |
| CCOC(=O)CCc1ccc(NCC(C)(C)c2ccc(F)cc2)nn1 [ethyl 3-(6-{[2-(4-fluorophenyl)-2-methylpropyl]amino}pyridazin-3-yl)propanoate] | D (D=>20 uM) |

Same assay, conditions: median AC1.4 class, procedure of Example 39

| Mean AC1.4 | SMILES |
| --- | --- |
| D (D=>20 uM) | COC(=O)c1cn(C)c(-c2ccc(NCC3(c4ncccc4F)CCC3)nn2)n1 [methyl 2-[6-({[(3-fluoro(2-pyridyl))cyclobutyl]methyl}ami-no)pyridazin-3-yl]-1-methylimidazole-4-carboxylate] |
| D (D=>20 uM) | COC(=O)c1cnc(-c2ccc(NCC3(c4ncccc4F)CCC3)nn2)o1 [methyl 2-[6-({[(3-fluoro-2-pyridyl)cyclobutyl]methyl}ami-no)pyridazin-3-yl]-1,3-oxazole-5-carboxylate] |
| D (D=>20 uM) | COC(=O)c1csc(-c2ccc(NCC3(c4ncccc4F)CCC3)nn2)n1 [methyl 2-[6-({[(3-fluoro-2-pyridyl)cyclobutyl]methyl}ami-no)pyridazin-3-yl]-1,3-thiazole-4-carboxylate] |
| D (D=>20 uM) | COC(=O)c1c[nH]c(-c2ccc(NCC3(c4ncccc4F)CCC3)nn2)n1 [methyl 2-[6-({[(3-fluoro-2-pyridyl)cyclobutyl]methyl}ami-no)pyridazin-3-yl]imidazole-4-carboxylate] |
| B (B=1-10 uM) | COC(=O)c1cccc(-c2ccc(NC[C@]3(c4ncccc4F)C[C@H](F)C3)nn2)c1 [methyl 3-[6-({[3-fluoro-1-(3-fluoro(2-pyridyl))cyclobutyl]methyl}ami-no)pyridazin-3-yl]benzoate] |
| B (B=1-10 uM) | COC(=O)c1ccc(F)c(-c2ccc(NC[C@]3(c4ncccc4F)C[C@H](F)C3)nn2)c1 [methyl 4-fluoro-3-[6-({[3-fluoro-1-(3-fluoro(2-pyridyl))cyclobutyl]methyl}ami-no)pyridazin-3-yl]benzoate] |

The next lines start with the compound.

| SMILES | Mean AC1.4 |
| --- | --- |
| NC(=O)NCc1cnc(-c2ccc(NCC3(c4ncccc4F)CCC3)nn2)s1 [amino-N-({2-[6-({[(3-fluoro(2-pyridyl))cyclobutyl]methyl}ami-no)pyridazin-3-yl](1,3-thiazol-5-yl)}methyl)amide] | A (A=<1 uM) |
| NC(=S)c1cnc(-c2ccc(NCC3(c4ncccc4F)CCC3)nn2)s1 [amino{2-[6-({[(3-fluoro(2-pyridyl))cyclobutyl]methyl}ami-no)pyridazin-3-yl](1,3-thiazol-5-yl)}methane-1-thione] | A (A=<1 uM) |
| NS(=O)(=O)Nc1ccc(F)c(-c2ccc(NCC3(c4ncccc4F)CCC3)nn2)c1 [amino{4-fluoro-3-[6-({[(3-fluoro(2-pyridyl))cyclobutyl]methyl}ami-no)pyridazin-3-yl]phenyl}sulfonamide] | A (A=<1 uM) |
| CCOC(=O)c1sc(-c2ccc(NCC3(c4ncccc4F)CCC3)nn2)nc1O [ethyl 2-[6-({[(3-fluoro(2-pyridyl))cyclobutyl]methyl}ami-no)pyridazin-3-yl]-4-hydroxy-1,3-thiazole-5-carboxylate] | D (D=>20 uM) |
| CCOC(=O)c1cc(-c2ccc(NC[C@]3(c4ncccc4F)C[C@H](F)C3)nn2)ccc1F [ethyl 2-fluoro-5-[6-({[3-fluoro-1-(3-fluoro(2-pyridyl))cyclobutyl]methyl}ami-no)pyridazin-3-yl]benzoate] | C (C=10-20 uM) |
| CCOC(=O)c1c(-c2ccc(NCC3(c4ncccc4F)CCC3)nn2)n[nH]c1O [ethyl 3-[6-({[(3-fluoro(2-pyridyl))cyclobutyl]methyl}ami-no)pyridazin-3-yl]-5-hydroxypyrazole-4-carboxylate] | D (D=>20 uM) |
| CCOC(=O)c1nc(-c2cc(Cl)c(NCC3(c4ncccc4F)CCC3)nn2)sc1Cl [ethyl 5-chloro-2-[5-chloro-6-({[(3-fluoro(2-pyridyl))cyclobutyl]methyl}ami-no)pyridazin-3-yl]-1,3-thiazole-4-carboxylate] | D (D=>20 uM) |

Same assay, conditions: median AC1.4 reported as class; procedure of Example 39

| Mean AC1.4 | SMILES |
| --- | --- |
| B (B=1-10 uM) | COC(=O)Cc1ccc(F)c(-c2ccc(NCC3(c4ncccc4F)CCC3)nn2)c1 [methyl 2-{4-fluoro-3-[6-({[(3-fluoro(2-pyridyl))cyclobutyl]methyl}ami-no)pyridazin-3-yl]phenyl}acetate] |
| B (B=1-10 uM) | COC(=O)c1csc(NC(=O)c2ccc(NCC3(c4ncccc4F)CCC3)nn2)n1 [methyl 2-{[6-({[(3-fluoro-2-pyridyl)cyclobutyl]methyl}ami-no)pyridazin-3-yl]carbonylamino}-1,3-thiazole-4-carboxylate] |
| B (B=1-10 uM) | COC(=O)CCc1cnc(-c2ccc(NCC3(c4ncccc4F)CCC3)nn2)s1 [methyl 3-{2-[6-({[(3-fluoro-2-pyridyl)cyclobutyl]methyl}ami-no)pyridazin-3-yl]-1,3-thiazol-5-yl}propanoate] |

More lines, now with the values behind:

| SMILES | Mean AC1.4 |
| --- | --- |
| CC(C)[C@H](N)C(=O)N[C@H](C(=O)OCC(=O)NCc1cnc(-c2ccc(NCC3(c4ncccc4F)CCC3)nn2)s1)C(C)C [[N-({2-[6-({[(3-fluoro-2-pyridyl)cyclobutyl]methyl}ami-no)pyridazin-3-yl]-1,3-thiazol-5-yl}methyl)carbamoyl]methyl (2S)-2-((2S)-2-amino-3-methylbutanoylamino)-3-methylbutanoate] | A (A=<1 uM) |
| C[C@H](N)C(=O)N[C@@H](C)C(=O)OCC(=O)NCc1cnc(-c2ccc(NCC3(c4ncccc4F)CCC3)nn2)s1 [[N-({2-[6-({[(3-fluoro-2-pyridyl)cyclobutyl]methyl}ami-no)pyridazin-3-yl]-1,3-thiazol-5-yl}methyl)carbamoyl]methyl (2S)-2-((2S)-2-aminopropanoylamino)propanoate] | A (A=<1 uM) |
| CC(C)[C@H](N)C(=O)OCC(=O)NCc1cnc(-c2ccc(NCC3(c4ncccc4F)CCC3)nn2)s1 [[N-({2-[6-({[(3-fluoro-2-pyridyl)cyclobutyl]methyl}ami-no)pyridazin-3-yl]-1,3-thiazol-5-yl}methyl)carbamoyl]methyl (2S)-2-amino-3-methylbutanoate] | A (A=<1 uM) |
| C[C@H](N)C(=O)OCC(=O)NCc1cnc(-c2ccc(NCC3(c4ncccc4F)CCC3)nn2)s1 [[N-({2-[6-({[(3-fluoro-2-pyridyl)cyclobutyl]methyl}ami-no)pyridazin-3-yl]-1,3-thiazol-5-yl}methyl)carbamoyl]methyl (2S)-2-aminopropanoate] | A (A=<1 uM) |
| NC(=O)NC1CCc2nc(-c3ccc(NCC4(c5ncccc5F)CCC4)nn3)sc2C1 (stereo not shown) [amino-N-{2-[6-({[(3-fluoro(2-pyridyl))cyclobutyl]methyl}ami-no)pyridazin-3-yl](4,5,6,7-tetrahydrobenzothiazol-6-yl)}amide] | D (D=>20 uM) |
| CCOC(=O)Cc1csc(NC(=O)c2ccc(NCC3(c4ncccc4F)CCC3)nn2)n1 [ethyl 2-(2-{[6-({[(3-fluoro-2-pyridyl)cyclobutyl]methyl}ami-no)pyridazin-3-yl]carbonylamino}-1,3-thiazol-4-yl)acetate] | A (A=<1 uM) |
| CCOC(=O)Cc1nnc(NC(=O)c2ccc(NCC3(c4ncccc4F)CCC3)nn2)s1 [ethyl 2-(5-{[6-({[(3-fluoro-2-pyridyl)cyclobutyl]methyl}ami-no)pyridazin-3-yl]carbonylamino}-1,3,4-thiadiazol-2-yl)acetate] | D (D=>20 uM) |
| CCOC(=O)Cc1csc(-c2ccc(NCC3(c4ncccc4F)CCC3)nn2)n1 [ethyl 2-{2-[6-({[(3-fluoro-2-pyridyl)cyclobutyl]methyl}ami-no)pyridazin-3-yl]-1,3-thiazol-4-yl}acetate] | C (C=10-20 uM) |
| CCOC(=O)c1coc(NC(=O)c2ccc(NCC3(c4ncccc4F)CCC3)nn2)n1 [ethyl 2-{[6-({[(3-fluoro-2-pyridyl)cyclobutyl]methyl}ami-no)pyridazin-3-yl]carbonylamino}-1,3-oxazole-4-carboxylate] | D (D=>20 uM) |
| CCOC(=O)c1cnc(NC(=O)c2ccc(NCC3(c4ncccc4F)CCC3)nn2)s1 [ethyl 2-{[6-({[(3-fluoro-2-pyridyl)cyclobutyl]methyl}ami-no)pyridazin-3-yl]carbonylamino}-1,3-thiazole-5-carboxylate] | D (D=>20 uM) |
| CCOC(=O)c1nc(NC(=O)c2ccc(NCC3(c4ncccc4F)CCC3)nn2)cn1C [ethyl 4-{[6-({[(3-fluoro(2-pyridyl))cyclobutyl]methyl}ami-no)pyridazin-3-yl]carbonylamino}-1-methylimidazole-2-carboxylate] | D (D=>20 uM) |
| CCOC(=O)c1cc(-c2ccc(NC[C@]3(c4ncccc4F)C[C@H](F)C3)nn2)ccc1NC [ethyl 5-[6-({[3-fluoro-1-(3-fluoro(2-pyridyl))cyclobutyl]methyl}ami-no)pyridazin-3-yl]-2-(methylamino)benzoate] | A (A=<1 uM) |
